Results reported in ChEMBL document CHEMBL4732126, “Design, synthesis, and biodistribution studies of new analogues of marine alkaloids: Potent in vitro and in vivo fungicidal agents against Candida spp” (Eur J Med Chem, 2021).
The source made the active and inactive calls. The rule behind the calls is not given here.

Tests used:
Candida tropicalis [1] = experiment: Antifungal activity against Candida tropicalis ATCC 28707 assessed as reduction in fungal growth incubated for 48 hrs by broth microdilution method; type: functional
Pichia kudriavzevii [2] = experiment: Antifungal activity against Candida krusei ATCC 34135 assessed as reduction in fungal growth incubated for 48 hrs by broth microdilution method; type: functional
Candida albicans [3] = experiment: Antifungal activity against Candida albicans isolate 9 assessed as reduction in fungal growth incubated for 48 hrs by broth microdilution method; type: functional
Pichia kudriavzevii [4] = experiment: Antifungal activity against Candida krusei ATCC 34135 assessed as reduction in fungal growth incubated for 48 hrs in presence of sorbitol by broth microdilution method; type: functional
Candida albicans [5] = experiment: Fungicidal activity against Candida albicans isolate 5 assessed as fungal killing incubated for 48 hrs followed by plating on SD agar plate; type: functional; details: read-out: MFC99.9
Candida albicans [6] = experiment: Antifungal activity against Candida albicans isolate 8 assessed as reduction in fungal growth incubated for 48 hrs by broth microdilution method; type: functional
Nakaseomyces glabratus [7] = experiment: Disruption of cell membrane in Candida glabrata ATCC 2001 assessed as increase in intracellular leakage at MIC incubated for 24 hrs by UV spectrophotometric analysis; type: cell-based
Candida albicans [8] = experiment: Disruption of cell membrane in Candida albicans ATCC 10231 assessed as increase in intracellular leakage at MIC incubated for 24 hrs by UV spectrophotometric analysis; type: cell-based
Candida albicans [9] = experiment: Antifungal activity against Candida albicans ATCC 10231 assessed as inhibition of yeast to hypha morphological transition at 15.6 ug/ml measured upto 72 hrs by microscopic analysis; type: functional, organism-based; details: dose 15.6 µg/ml, time hrs <=72
Candida albicans [10] = experiment: Fungicidal activity against Candida albicans isolate 6 assessed as fungal killing incubated for 48 hrs followed by plating on SD agar plate; type: functional; details: read-out: MFC99.9
Candida albicans [11] = experiment: Fungicidal activity against Candida albicans isolate 8 assessed as fungal killing incubated for 48 hrs followed by plating on SD agar plate; type: functional; details: read-out: MFC99.9
Candida albicans [12] = experiment: Antifungal activity against Candida albicans isolate 7 assessed as reduction in fungal growth incubated for 48 hrs by broth microdilution method; type: functional
Candida albicans [13] = experiment: Antifungal activity against Candida albicans isolate 10 assessed as reduction in fungal growth incubated for 48 hrs by broth microdilution method; type: functional
Nakaseomyces glabratus [14] = experiment: Antifungal activity against Candida glabrata ATCC 2001 assessed as reduction in fungal growth incubated for 48 hrs by broth microdilution method; type: functional
Candida albicans [15] = experiment: Antifungal activity against Candida albicans isolate 11 assessed as reduction in fungal growth incubated for 48 hrs by broth microdilution method; type: functional
Candida albicans [16] = experiment: Antifungal activity against Candida albicans ATCC 10231 assessed as reduction in fungal growth incubated for 48 hrs in presence of sorbitol by broth microdilution method; type: functional
Candida albicans [17] = experiment: Fungicidal activity against Candida albicans isolate 4 assessed as fungal killing incubated for 48 hrs followed by plating on SD agar plate; type: functional; details: read-out: MFC99.9
Pichia kudriavzevii [18] = experiment: Fungicidal activity against Candida krusei ATCC 34135 assessed as fungal killing incubated for 48 hrs followed by plating on SD agar plate; type: functional; details: read-out: MFC99.9
Nakaseomyces glabratus [19] = experiment: Antifungal activity against Candida glabrata ATCC 2001 assessed as reduction in fungal growth incubated for 48 hrs in presence of ergosterol by broth microdilution method; type: functional
Pichia kudriavzevii [20] = experiment: Disruption of cell membrane in Candida krusei ATCC 34135 assessed as increase in intracellular leakage at MIC incubated for 24 hrs by UV spectrophotometric analysis; type: cell-based
Candida albicans [21] = experiment: Fungicidal activity against Candida albicans isolate 9 assessed as fungal killing incubated for 48 hrs followed by plating on SD agar plate; type: functional; details: read-out: MFC99.9
Candida tropicalis [22] = experiment: Antifungal activity against Candida tropicalis ATCC 28707 assessed as reduction in fungal growth incubated for 48 hrs in presence of sorbitol by broth microdilution method; type: functional
Candida albicans [23] = experiment: Antibiofilm activity against Candida albicans ATCC 10231 assessed as reduction in mature biofilm at 125 ug/ml incubated for 48 hrs by crystal violet staining based spectrophotometric analysis relative to control; type: functional
Candida albicans [24] = experiment: Antifungal activity against Candida albicans isolate 3 assessed as reduction in fungal growth incubated for 48 hrs by broth microdilution method; type: functional
Candida tropicalis [25] = experiment: Fungicidal activity against Candida tropicalis ATCC 28707 assessed as fungal killing incubated for 48 hrs followed by plating on SD agar plate; type: functional; details: read-out: MFC99.9
Candida albicans [26] = experiment: Antibiofilm activity against Candida albicans ATCC 10231 assessed as reduction in biofilm formation at 0.24 to 7.81 ug/ml by crystal violet staining based spectrophotometric analysis; type: functional, organism-based; details: dose 0.24-7.81 µg/ml
Candida albicans [27] = experiment: Antifungal activity against Candida albicans ATCC 10231 assessed as reduction in fungal growth incubated for 48 hrs in presence of ergosterol by broth microdilution method; type: functional
Candida albicans [28] = experiment: Fungicidal activity against Candida albicans ATCC 10231 assessed as fungal killing incubated for 48 hrs followed by plating on SD agar plate; type: functional; details: read-out: MFC99.9
Candida albicans [29] = experiment: Fungicidal activity against Candida albicans isolate 2 assessed as fungal killing incubated for 48 hrs followed by plating on SD agar plate; type: functional; details: read-out: MFC99.9
Candida albicans [30] = experiment: Antifungal activity against Candida albicans ATCC 18804 assessed as reduction in fungal growth incubated for 48 hrs by broth microdilution method; type: functional
Candida albicans [31] = experiment: Fungicidal activity against Candida albicans ATCC 10231 assessed as reduction in fungal load at 7.8 ug/ml incubated for 36 hrs followed by inoculation on SD agar plate for 48 hrs by time-kill assay; type: functional, organism-based; details: dose 7.8 µg/ml, time 84.0 hrs
Candida albicans [32] = experiment: Antifungal activity against Candida albicans ATCC 10231 assessed as reduction in fungal growth incubated for 48 hrs by broth microdilution method; type: functional
Candida albicans [33] = experiment: Antifungal activity against Candida albicans isolate 4 assessed as reduction in fungal growth incubated for 48 hrs by broth microdilution method; type: functional
Candida albicans [34] = experiment: Antifungal activity against Candida albicans isolate 2 assessed as reduction in fungal growth incubated for 48 hrs by broth microdilution method; type: functional
Candida tropicalis [35] = experiment: Antifungal activity against Candida tropicalis ATCC 28707 assessed as reduction in fungal growth incubated for 48 hrs in presence of ergosterol by broth microdilution method; type: functional
Candida albicans [36] = experiment: Antifungal activity against Candida albicans isolate 6 assessed as reduction in fungal growth incubated for 48 hrs by broth microdilution method; type: functional
Candida albicans [37] = experiment: Antifungal activity against Candida albicans isolate 5 assessed as reduction in fungal growth incubated for 48 hrs by broth microdilution method; type: functional
Candida albicans [38] = experiment: Fungicidal activity against Candida albicans isolate 7 assessed as fungal killing incubated for 48 hrs followed by plating on SD agar plate; type: functional; details: read-out: MFC99.9
Candida albicans [39] = experiment: Antifungal activity against Candida albicans isolate 12 assessed as reduction in fungal growth incubated for 48 hrs by broth microdilution method; type: functional
Candida albicans [40] = experiment: Fungicidal activity against Candida albicans isolate 3 assessed as fungal killing incubated for 48 hrs followed by plating on SD agar plate; type: functional; details: read-out: MFC99.9
Candida albicans [41] = experiment: Fungicidal activity against Candida albicans isolate 10 assessed as fungal killing incubated for 48 hrs followed by plating on SD agar plate; type: functional; details: read-out: MFC99.9
Candida albicans [42] = experiment: Fungicidal activity against Candida albicans isolate 12 assessed as fungal killing incubated for 48 hrs followed by plating on SD agar plate; type: functional; details: read-out: MFC99.9
Candida albicans [43] = experiment: Fungicidal activity against Candida albicans isolate 11 assessed as fungal killing incubated for 48 hrs followed by plating on SD agar plate; type: functional; details: read-out: MFC99.9
Candida albicans [44] = experiment: Antifungal activity against Candida albicans isolate 13 assessed as reduction in fungal growth incubated for 48 hrs by broth microdilution method; type: functional
Nakaseomyces glabratus [45] = experiment: Antifungal activity against Candida glabrata ATCC 2001 assessed as reduction in fungal growth incubated for 48 hrs in presence of sorbitol by broth microdilution method; type: functional
Candida albicans [46] = experiment: Fungicidal activity against Candida albicans isolate 13 assessed as fungal killing incubated for 48 hrs followed by plating on SD agar plate; type: functional; details: read-out: MFC99.9
Candida albicans [47] = experiment: Antifungal activity against Candida albicans isolate 1 assessed as reduction in fungal growth incubated for 48 hrs by broth microdilution method; type: functional
Candida tropicalis [48] = experiment: Disruption of cell membrane in Candida tropicalis ATCC 28707 assessed as increase in intracellular leakage at MIC incubated for 24 hrs by UV spectrophotometric analysis; type: cell-based
Candida albicans [49] = experiment: Fungicidal activity against Candida albicans isolate 1 assessed as fungal killing incubated for 48 hrs followed by plating on SD agar plate; type: functional; details: read-out: MFC99.9
Pichia kudriavzevii [50] = experiment: Antifungal activity against Candida krusei ATCC 34135 assessed as reduction in fungal growth incubated for 48 hrs in presence of ergosterol by broth microdilution method; type: functional
Candida albicans [51] = experiment: Fungicidal activity against Candida albicans ATCC 18804 assessed as fungal killing incubated for 48 hrs followed by plating on SD agar plate; type: functional; details: read-out: MFC99.9
Nakaseomyces glabratus [52] = experiment: Fungicidal activity against Candida glabrata ATCC 2001 assessed as fungal killing incubated for 48 hrs followed by plating on SD agar plate; type: functional; details: read-out: MFC99.9
Candida albicans [53] = experiment: Fungicidal activity against Candida albicans ATCC 10231 assessed as reduction in fungal load at 31.25 ug/ml incubated for 12 hrs followed by inoculation on SD agar plate for 48 hrs by time-kill assay; type: functional, organism-based; details: dose 31.25 µg/ml, time 60.0 hrs

CCCC[n+]1cccc(CCCOCCCCCCCCCCCCN=[N+]=[N-])c1.[I-]
MIC (Candida tropicalis [1]): 7.8 µg/mL
MIC (Pichia kudriavzevii [2]): 3.9 µg/mL
MIC (Candida albicans [3]): 15.6 µg/mL
MIC (Pichia kudriavzevii [4]): 3.9 µg/mL
MFC (Candida albicans [5]): 3.9 µg/mL
MIC (Candida albicans [6]): 3.9 µg/mL
Activity (Nakaseomyces glabratus [7]): Active
Activity (Candida albicans [8]): Active
Activity (Candida albicans [9]): Active
MFC (Candida albicans [10]): 31.2 µg/mL
MFC (Candida albicans [11]): 7.8 µg/mL
MIC (Candida albicans [12]): 7.8 µg/mL
MIC (Candida albicans [13]): 15.6 µg/mL
MIC (Nakaseomyces glabratus [14]): 7.8 µg/mL
MIC (Candida albicans [15]): 7.8 µg/mL
MIC (Candida albicans [16]): 7.8 µg/mL
MFC (Candida albicans [17]): 3.9 µg/mL
MFC (Pichia kudriavzevii [18]): 3.9 µg/mL
MIC (Nakaseomyces glabratus [19]): 15.6 µg/mL
Activity (Pichia kudriavzevii [20]): Active
MFC (Candida albicans [21]): 31.2 µg/mL
MIC (Candida tropicalis [22]): 7.8 µg/mL
inhibition at 125 µg/mL (Candida albicans [23]): 50%
MIC (Candida albicans [24]): 3.9 µg/mL
MFC (Candida tropicalis [25]): 15.6 µg/mL
Activity (Candida albicans [26]): Active
MIC (Candida albicans [27]): 7.8 µg/mL
MFC (Candida albicans [28]): 31.2 µg/mL
MFC (Candida albicans [29]): 7.8 µg/mL
MIC (Candida albicans [30]): 7.8 µg/mL
Activity (Candida albicans [31]): Active
MIC (Candida albicans [32]): 7.8 µg/mL
MIC (Candida albicans [33]): 1.95 µg/mL
MIC (Candida albicans [34]): 7.8 µg/mL
MIC (Candida tropicalis [35]): 7.8 µg/mL
MIC (Candida albicans [36]): 15.6 µg/mL
MIC (Candida albicans [37]): 3.9 µg/mL
MFC (Candida albicans [38]): 7.8 µg/mL
MIC (Candida albicans [39]): 7.8 µg/mL
MFC (Candida albicans [40]): 3.9 µg/mL
MFC (Candida albicans [41]): 31.2 µg/mL
MFC (Candida albicans [42]): 7.8 µg/mL
MFC (Candida albicans [43]): 7.8 µg/mL
MIC (Candida albicans [44]): 7.8 µg/mL
MIC (Nakaseomyces glabratus [45]): 7.8 µg/mL
MFC (Candida albicans [46]): 7.8 µg/mL
MIC (Candida albicans [47]): 7.8 µg/mL
Activity (Candida tropicalis [48]): Active
MFC (Candida albicans [49]): 62.5 µg/mL
MIC (Pichia kudriavzevii [50]): 3.9 µg/mL
MFC (Candida albicans [51]): 125 µg/mL
MFC (Nakaseomyces glabratus [52]): 15.6 µg/mL
Activity (Candida albicans [53]): Active
